≈ marks a conversion by molar mass, not a printed value. Read-outs that look alike come from different tables or passages of the source. Where a SMILES comes first, the peptide text is derived from it. Where no end group is shown, it is not given here. The star is where a group is joined. Octanoyl = CCCCCCCC(=O)*
Legend:
[1] = system: Escherichia coli (ATCC 25922); assay type: cell-based
Protocol: (§1) Antimicrobial and Hemolytic Assays. Antimicrobial susceptibility testing against Staphylococcus aureus (ATCC 29213), Escherichia coli (ATCC 25922), and Pseudomonas aeruginosa (ATCC 27853) was performed using a modification of the National Committee for Clinical Laboratory Standards microdilution broth assay (22). Mueller-Hinton broth (BBL) was used for diluting the peptide stock solution and for diluting the bacterial inoculum. The inoculum was prepared from mid-logarithmic phase cultures. […] The final concentration of peptide solution ranged-from 0.25 to 256 μg/mL in two-fold dilutions. The final concentration of bacteria in the wells was 5×10^5 CFU/mL. Peptides were tested in duplicate. In addition to the test peptide, three standard peptides and a non-treated growth control were included to validate the assay. The microtiter plates were incubated overnight at 37° C. and the absorbance was measured at 600 nm. […] After incubation at 37° C. for 30 min, the suspension was centrifuged at 10,000×g for 10 min and the absorbance at 400 nm was measured.

[2] = system: Staphylococcus aureus (ATCC 29213); assay type: cell-based
Protocol: as §1

[3] = system: Pseudomonas aeruginosa (ATCC 27853); assay type: cell-based
Protocol: as §1

[4] = system: E. coli, S. aureus, and P. aeruginosa; assay type: cell-based
Protocol: Antimicrobial and Hemolytic Assays. Antimicrobial susceptibility testing against Staphylococcus aureus (ATCC 29213), Escherichia coli (ATCC 25922), and Pseudomonas aeruginosa (ATCC 27853) was performed using a modification of the National Committee for Clinical Laboratory Standards microdilution broth assay (22). Mueller-Hinton broth (BBL) was used for diluting the peptide stock solution and for diluting the bacterial inoculum. The inoculum was prepared from mid-logarithmic phase cultures. Microtiter plate wells received aliquots-of 100 μL each of the inoculum and peptide dilution. The final concentration of peptide solution ranged-from 0.25 to 256 μg/mL in two-fold dilutions. The final concentration of bacteria in the wells was 5×10^5 CFU/mL. Peptides were tested in duplicate. In addition to the test peptide, three standard peptides and a non-treated growth control were included to validate the assay. The microtiter plates were incubated overnight at 37° C. and the absorbance was measured at 600 nm. […] Hemolysis at peptide concentrations of 500 μg/mL was determined using a 5% suspension of freshly drawn human erythrocytes, which had been washed twice in phosphate buffered saline. After incubation at 37° C. for 30 min, the suspension was centrifuged at 10,000×g for 10 min and the absorbance at 400 nm was measured. Complete hemolysis was determined by adding 0.2% Triton X-100 in place of the peptide.

[5] = Peptide-induced leakage from calcein-loaded LUV
Protocol: Peptide-Induced Leakage from Calcein-Loaded LUV. The ability of the peptides to release calcein (MW 623) from LUV of varying lipid composition was compared. LUV were prepared as above, except that-the buffer consisted of 50 mM HEPES, 100 mM NaCl, 0.3 mM EDTA, 80 mM calcein, pH 7.4. Calcein-loaded vesicles were separated from free calcein by size-exclusion chromatography using a Sephadex G-50 column and calcein-free buffer. Calcein leakage was monitored using a Perkin-Elmer LS-500 luminescence spectrometer by measuring the time-dependent increase in fluorescence of calcein (excitation=490 nm, emission=520 nm). LUV containing 8 nmoles of lipid were added to 1.5 mL of buffer in a stirred cuvet at 25° C. An aliquot of peptide was added to achieve the desired lipid-to-peptide ratio (256 to 8). Complete leakage was determined by the addition of 20 μL of 10% Triton X-100. Each value represents at least nine different measurements using at least three different LUV preparations.

Compound	MIC E. coli ([1]; ATCC 25922) [µg/mL]	MIC Staph. aureus ([2]; ATCC 29213) [µg/mL]	MIC Pseud. aerug ([3]; ATCC 27853) [µg/mL]	antimicrobial activity (in words) [4]	also measured
CC[C@H](C)[C@H](NC(=O)[C@H](C)NC(=O)CNC(=O)[C@@H](NC(=O)[C@H](CCCCN)NC(=O)[C@H](CCCCN)NC(=O)[C@@H](NC(=O)[C@H](C)NC(=O)CNC(=O)[C@H](Cc1c[nH]c2ccccc12)NC(=O)[C@H](CCCCN)NC(=O)[C@H](CCCCN)NC(=O)[C@@H](NC(=O)[C@H](C)NC(=O)CNC(=O)[C@@H](NC(=O)[C@@H](N)CCCCN)[C@@H](C)CC)[C@@H](C)CC)[C@@H](C)CC)[C@@H](C)CC)C(=O)N[C@@H](CCCCN)C(N)=O [1,6-Hex, K I G A I K K W G A I K K I G A I K-NH2] (H-KIGAIKKWGAIKKIGAIK-NH2; N-terminus assumed)	>256	>256	>256	–	–
CC(C)C[C@H](NC(=O)[C@H](CCCCN)NC(=O)CNC(=O)[C@H](C)NC(=O)[C@H](CC(C)C)NC(=O)[C@H](CCCCN)NC(=O)[C@H](C)NC(=O)[C@H](CC(C)C)NC(=O)[C@H](CCCCN)NC(=O)CNC(=O)[C@H](C)NC(=O)[C@H](Cc1c[nH]c2ccccc12)NC(=O)[C@H](CCCCN)NC(=O)[C@H](C)NC(=O)[C@H](CC(C)C)NC(=O)[C@H](CCCCN)NC(=O)CNC(=O)[C@H](C)NC(=O)[C@H](CC(C)C)NC(=O)[C@@H](N)CCCCN)C(=O)N[C@@H](C)C(N)=O [1,5-Hept, KLAGKLAKWAGKLAKLAGKLA-NH2] (H-KLAGKLAKWAGKLAKLAGKLA-NH2; N-terminus assumed)	8 (≈ 3.75 µM)	4 (≈ 1.87 µM)	16 (≈ 7.49 µM)	relatively low MIC values	–
CC[C@H](C)[C@H](NC(=O)[C@H](CCCCN)NC(=O)[C@H](C)NC(=O)CNC(=O)[C@@H](NC(=O)[C@H](CCCCN)NC(=O)[C@@H](NC(=O)[C@H](CCCCN)NC(=O)[C@H](C)NC(=O)CNC(=O)[C@H](Cc1c[nH]c2ccccc12)NC(=O)[C@H](CCCCN)NC(=O)[C@@H](NC(=O)[C@H](CCCCN)NC(=O)[C@H](C)NC(=O)CNC(=O)[C@@H](NC(=O)[C@@H](N)CCCCN)[C@@H](C)CC)[C@@H](C)CC)[C@@H](C)CC)[C@@H](C)CC)C(N)=O [1,5-Hex, K I G A K I K W G A K I K I G A K I-NH2] (H-KIGAKIKWGAKIKIGAKI-NH2; N-terminus assumed)	–	–	–	appreciable antimicrobial activity	–
CC(C)C[C@H](NC(=O)CNC(=O)[C@H](C)NC(=O)[C@H](CC(C)C)NC(=O)[C@H](CCCCN)NC(=O)[C@H](C)NC(=O)[C@H](CCCCN)NC(=O)[C@H](CC(C)C)NC(=O)CNC(=O)[C@H](C)NC(=O)[C@H](Cc1c[nH]c2ccccc12)NC(=O)[C@H](CCCCN)NC(=O)[C@H](C)NC(=O)[C@H](CCCCN)NC(=O)[C@H](CC(C)C)NC(=O)CNC(=O)[C@H](C)NC(=O)[C@H](CC(C)C)NC(=O)[C@@H](N)CCCCN)C(=O)N[C@@H](CCCCN)C(=O)N[C@@H](C)C(N)=O [1,6-Hept, KLAGLKAKWAGLKAKLAGLKA-NH2] (H-KLAGLKAKWAGLKAKLAGLKA-NH2; N-terminus assumed)	>256	>256	>256	devoid of antimicrobial activity	–
CC[C@H](C)[C@H](NC(=O)[C@H](C)NC(=O)CNC(=O)[C@H](CCCCN)NC(=O)[C@@H](NC(=O)[C@H](CCCCN)NC(=O)[C@@H](NC(=O)[C@H](C)NC(=O)CNC(=O)[C@H](CCCCN)NC(=O)[C@H](Cc1c[nH]c2ccccc12)NC(=O)[C@H](CCCCN)NC(=O)[C@@H](NC(=O)[C@H](C)NC(=O)CNC(=O)[C@H](CCCCN)NC(=O)[C@@H](NC(=O)[C@@H](N)CCCCN)[C@@H](C)CC)[C@@H](C)CC)[C@@H](C)CC)[C@@H](C)CC)C(N)=O [1,3-Hex, K I K G A I K W K G A I K I K G A I-NH2] (H-KIKGAIKWKGAIKIKGAI-NH2; N-terminus assumed)	8 (≈ 4.16 µM)	32 (≈ 16.6 µM)	16 (≈ 8.32 µM)	appreciable antimicrobial activity	–
CC[C@H](C)[C@H](NC(=O)[C@H](C)NC(=O)[C@H](CCCCN)NC(=O)CNC(=O)[C@@H](NC(=O)[C@H](CCCCN)NC(=O)[C@@H](NC(=O)[C@H](C)NC(=O)[C@H](CCCCN)NC(=O)CNC(=O)[C@H](Cc1c[nH]c2ccccc12)NC(=O)[C@H](CCCCN)NC(=O)[C@@H](NC(=O)[C@H](C)NC(=O)[C@H](CCCCN)NC(=O)CNC(=O)[C@@H](NC(=O)[C@@H](N)CCCCN)[C@@H](C)CC)[C@@H](C)CC)[C@@H](C)CC)[C@@H](C)CC)C(N)=O [1,4-Hex, K I G K A I K W G K A I K I G K A I-NH2] (H-KIGKAIKWGKAIKIGKAI-NH2; N-terminus assumed)	32 (≈ 16.6 µM)	>256	64 (≈ 33.3 µM)	–	–
CC[C@H](C)[C@H](NC(=O)[C@H](C)NC(=O)CNC(=O)[C@@H](NC(=O)[C@H](CCCCN)NC(=O)[C@H](CCCCN)NC(=O)[C@@H](NC(=O)[C@H](C)NC(=O)CNC(=O)[C@H](Cc1c[nH]c2ccccc12)NC(=O)[C@H](CCCCN)NC(=O)[C@H](CCCCN)NC(=O)[C@@H](NC(=O)[C@H](C)NC(=O)CNC(=O)[C@@H](NC(=O)[C@H](CCCCN)NC(=O)[C@@H](N)CCCCN)[C@@H](C)CC)[C@@H](C)CC)[C@@H](C)CC)[C@@H](C)CC)C(N)=O [1,2-Hex, K K I G A I K K W G A J K K I G A I-NH2] (H-KKIGAIKKWGAIKKIGAI-NH2; N-terminus assumed)	128 (≈ 66.6 µM)	>256	128 (≈ 66.6 µM)	–	–
K I G A K S K H G A K I K I G A K I-NH2 (KIGAKSKHGAKIKIGAKI-NH2) [SH-KIGAKI]	–	–	–	–	calcein leakage from LUV (in words) ([5]; POPC (PC) LUV): low lytic activity; calcein leakage from LUV (in words) ([5]; POPC/POPG LUV, all ratios (1:1 to 4:1)): no ability to induce leakage; calcein leakage from LUV (in words) ([5]; any LUVs containing PE/PG): no ability to induce leakage
CCCCCCCC(=O)N[C@@H](CCCCN)C(=O)N[C@H](C(=O)NCC(=O)N[C@@H](C)C(=O)N[C@@H](CCCCN)C(=O)N[C@H](C(=O)N[C@@H](CCCCN)C(=O)N[C@@H](Cc1c[nH]c2ccccc12)C(=O)NCC(=O)N[C@@H](C)C(=O)N[C@@H](CCCCN)C(=O)N[C@H](C(=O)N[C@@H](CCCCN)C(=O)N[C@H](C(=O)NCC(=O)N[C@@H](C)C(=O)N[C@@H](CCCCN)C(=O)N[C@H](C(N)=O)[C@@H](C)CC)[C@@H](C)CC)[C@@H](C)CC)[C@@H](C)CC)[C@@H](C)CC [Oct-KIGAKI-18A, Oct- K I G A K I K W G A K I K I G A K I-NH2] (Octanoyl-KIGAKIKWGAKIKIGAKI-NH2)	–	–	–	–	MIC E. coli ([1]; Table 103): 8 µg/mL (≈ 3.9 µM); MIC Staph. aureus ([2]; Table 103): 4 µg/mL (≈ 1.95 µM); MIC Pseud. aerug ([3]; Table 103): 8 µg/mL (≈ 3.9 µM)
CCCCCCCC(=O)N[C@@H](CCCCN)C(=O)N[C@H](C(=O)NCC(=O)N[C@@H](C)C(=O)N[C@@H](CCCCN)C(=O)N[C@H](C(=O)N[C@@H](CCCCN)C(=O)N[C@H](C(=O)NCC(=O)N[C@@H](C)C(=O)N[C@@H](CCCCN)C(=O)N[C@H](C(=O)N[C@@H](CCCCN)C(=O)N[C@@H](Cc1c[nH]c2ccccc12)C(=O)NCC(=O)N[C@@H](C)C(=O)N[C@@H](CCCCN)C(=O)N[C@H](C(N)=O)[C@@H](C)CC)[C@@H](C)CC)[C@@H](C)CC)[C@@H](C)CC)[C@@H](C)CC [Oct-KIGAKI-18B, Oct- K I G A K I K I G A K I K W G A K I-NH2] (Octanoyl-KIGAKIKIGAKIKWGAKI-NH2)	–	–	–	–	MIC E. coli ([1]; Table 103): 8 µg/mL (≈ 3.9 µM); MIC Staph. aureus ([2]; Table 103): 8 µg/mL (≈ 3.9 µM); MIC Pseud. aerug ([3]; Table 103): 8 µg/mL (≈ 3.9 µM)
